{
  "source": "patent US12529101B2",
  "about": "“Methods and reagents for characterizing genomic editing, clonal expansion, and associated applications” (TwinStrand Biosciences, Inc., priority 2018, dated 2026)",
  "key": {"human HRAS transgene": {"test_system": "human HRAS transgene", "experiment": "Duplex Sequencing detection of clonally expanded cancer driver mutations after urethane dosing", "type": "in vivo, mouse", "text": "(§1) In this example, the impact of urethane is examined in different mouse tissue types (lung, spleen, blood) in an FDA-accepted cancer-predisposed mouse model: Tg.rasH2 (Saitoh et al. Oncogene 1990. PMID 2202951). This mouse contains ˜3 tandem copies of human HRAS with an activating enhancer mutation to boost expression on one hemizygous allele. These mice are predisposed to splenic angiosarcomas and lung adenocarcinomas, and are routinely used for 6 month carcinogenicity studies to substitute for 2 year wild-type animal studies. Tumors found in the mice have usually acquired activating mutations in one copy of the human HRAS protooncogene. Thus, the human HRAS transgene serves a model target cancer driver gene in these animals. Sequence analysis and mutation detection was performed for 4 native mouse genes (Rho, Hp, Ctnnb1, Polr1c), along with the native mouse Hras, Kras, Nras and human HRAS transgene.\n(§2) In this example, Tg.rasH2 mice (n=5/group) were dosed with vehicle or a model mutation-inducing agent (e.g., a carcinogenic dose of urethane) (day 1,3,5) and sacrificed on day 29 for mutation detection by Duplex Sequencing in target tissues (lung, spleen) and whole blood. Target endogenous genes (Rho, Hp, Ctnnb1, Polr1c) and the native mouse Hras and human HRAS (trans)genes were also sequenced."}, "Tg.rasH2 mice": {"test_system": "Tg.rasH2 mice", "experiment": "Duplex Sequencing of mutation induction and mutation spectrum in lung, spleen and blood", "type": "in vivo, mouse", "text": "as §1, §2"}},
  "data": [
    {"compound": "CCOC(N)=O", "note": "[urethane]", "values": [
      {"measurement": "treated spleen samples with mutations in human HRAS codon 61", "setting": "human HRAS transgene; Tg.rasH2 mice, day 29, spleen, one at the same position, one on an adjoining base pair", "value": "two"},
      {"measurement": "urethane treated lung samples with the human HRAS codon 61 T>A mutation", "setting": "human HRAS transgene; Tg.rasH2 mice, n=5/group, day 29, lung", "value": "4/5"},
      {"measurement": "urethane-treated splenic samples with T>A transversion at the human oncogenic HRAS codon 61 hotspot", "setting": "human HRAS transgene; Tg.rasH2 mice, n=5/group, spleen", "value": "1/5"},
      {"measurement": "doubling time of the selected clone cells", "setting": "human HRAS transgene; by calculation, 29 days, assuming no cell death", "value": "~1.8", "unit": "days"},
      {"measurement": "variant allele frequencies of the codon 61 mutation in exon 3 of human HRAS", "setting": "human HRAS transgene; urethane treated lung samples, Tg.rasH2 mice, day 29, T→A transversions in the context CTG", "value": "0.1%-1.8"},
      {"measurement": "cells encompassed by the highest allele fraction clone", "setting": "human HRAS transgene; within the 29 days of the study", "value": "more than 90,000 cells"},
      {"measurement": "mutation induction in peripheral blood", "setting": "Tg.rasH2 mice; compared with spleen", "value": "closely mirrored that seen in the spleen"},
      {"measurement": "triplet mutation spectrum", "setting": "Tg.rasH2 mice; distinguishable from the vehicle control", "value": "strong propensity for T→A and T→C mutations within the context of “NTG”"},
      {"measurement": "tissue-specific variations in the extent of mutation induction", "setting": "Tg.rasH2 mice; lung, spleen, blood", "value": "lung being observed to be more mutation prone than spleen and blood"}
    ]}
  ]
}
